# What was measured:
# Assay in all cases: antibacterial activity, MIC by standard serial dilution method
# Type in all cases: cell-based
# Escherichia coli 255/S-1 = conditions: 255/S1
# Description: (§1) Antibacterial activity of Compounds Nos. 1, 3, 5, 7, 9, 11, 13, 15, 17, 19, 21, 23, 25, 27, 29, 31, 33, 35 and 37 indentified hereinbefore which are the particular examples of the new cephalosporin derivative of general formula (I) according to this invention and which are in the form of the free carboxylic acid was estimated by determining the minimum inhibitory concentrations (MIC., μg/ml) of these compounds against a variety of bacteria according to a standard serial dilution method.
# [1] = tested on: Escherichia coli NIHJ JC-2; conditions: NIHJJC2
# Description: as §1
# [2] = tested on: Klebsiella pneumoniae PCI602
# Description: as §1
# [3] = tested on: Klebsiella pneumoniae GN69
# Description: as §1
# [4] = tested on: Escherichia coli W3630 RGN823; conditions: W3630RGN823
# Description: as §1
# [5] = tested on: Enterobacter cloacae G-0008; conditions: G0008
# Description: as §1
# Proteus vulgaris GN76 = tested on: Proteus vulgaris GN76
# Description: as §1
# Escherichia coli GN206 = tested on: Escherichia coli GN206
# Description: as §1
# [6] = tested on: Staphylococcus epidermidis ATCC14990
# Description: as §1
# [7] = tested on: Staphylococcus aureus 209P JC-1
# Description: as §1
# [8] = tested on: Citrobacter freundii GN346
# Description: as §1
# [9] = tested on: Pseudomonas aeruginosa GN10362
# Description: as §1
# [10] = tested on: Enterobacter cloacae GN7471
# Description: as §1
# Escherichia coli 255 = tested on: Escherichia coli 255
# Description: as §1
# [11] = tested on: Enterobacter hirae ATCC8043
# Description: as §1
# [12] = tested on: Marganella morganii 1510/S-1
# Description: as §1
# Marganella morganii 1510 = tested on: Marganella morganii 1510
# Description: as §1
# [13] = tested on: Proteus vulgaris GN76/C-1
# Description: as §1
# [14] = tested on: Serratia marcescens GN10857
# Description: as §1
# [15] = tested on: Entrobacter faecalis W-73
# Description: as §1
# [16] = tested on: Citrobacter freundii GN346/16
# Description: as §1
# [17] = tested on: Serratia marcescens No. 1
# Description: as §1
Compound,MIC (Escherichia coli 255/S-1) [µg/mL],MIC [1] [µg/mL],MIC [2] [µg/mL],MIC [3] [µg/mL],MIC [4] [µg/mL],MIC [5] [µg/mL],MIC (Proteus vulgaris GN76) [µg/mL],MIC (Escherichia coli GN206) [µg/mL],MIC [6] [µg/mL],MIC [7] [µg/mL],MIC [8] [µg/mL],MIC [9] [µg/mL],MIC [10] [µg/mL],MIC (Escherichia coli 255) [µg/mL],MIC [11] [µg/mL],MIC [12] [µg/mL],MIC (Marganella morganii 1510) [µg/mL],MIC [13] [µg/mL],MIC [14] [µg/mL],MIC [15] [µg/mL],further results
"Nc1nc(/C(=N/O)C(=O)NC2C(=O)N3C(C(=O)O)=C(SC4CCOCC4)CS[C@H]23)cs1 (stereo partly shown) [Compound No. 15, 7-[(Z)-2-(2-aminothiazol-4-yl) -2-hydroxyiminoacetamido]-3-(tetrahydropyran-4-yl)thio-3-cephem-4-carboxylic acid]",0.39,0.78,0.39,0.78,12.5,1.56,1.56,12.5,0.2,0.2,> 100,> 100,100,50,6.25,0.2,50,6.25,> 100,1.56,MIC [16]: 6.25 µg/mL; MIC [17]: 6.25 µg/mL
"CO/N=C(\C(=O)NC1C(=O)N2C(C(=O)O)=C(SCC3CCOCC3)CS[C@H]12)c1csc(N)n1 (stereo partly shown) [Compound No. 31, 7-[(Z)-2-(2-aminothiazol-4-yl)-2-methoxyiminoacetamido]-3-(tetrahydropyran-4-yl)methylthio-3-cephem-4-carboxylic acid]",1.56,1.56,1.56,0.78,1.56,1.56,0.78,6.25,1.56,1.56,> 100,100,50,25,> 100,0.78,100,12.5,25,> 100,MIC [16]: 3.13 µg/mL; MIC [17]: 3.13 µg/mL
"CO/N=C(\C(=O)NC1C(=O)N2C(C(=O)O)=C(SC3CCOC3)CS[C@H]12)c1csc(N)n1 (stereo partly shown) [Compound No. 3, 7-[(Z)-2-(2-aminothiazol-4-yl)-2-methoxyiminoacetamido]-3-(tetrahydrofuran-3-yl)thio-3-cephem-4-carboxylic acid]",0.39,0.39,0.2,0.2,0.78,12.5,0.1,12.5,0.39,0.2,> 100,> 100,50,50,12.5,0.2,25,1.56,100,> 100,MIC [16]: 3.13 µg/mL; MIC [17]: 12.5 µg/mL
"Nc1nc(/C(=N/O)C(=O)NC2C(=O)N3C(C(=O)O)=C(SCC4CCOCC4)CS[C@H]23)cs1 (stereo partly shown) [Compound No. 37, 7-[(Z)-2-(2-aminothiazol-4-yl)-2-hydroxyiminoacetamido]-3-(tetrahydropyran-4-yl)methylthio-3-cephem-4-carboxylic acid]",3.13,3.13,3.13,0.1,6.25,3.13,3.13,12.5,0.39,0.39,> 100,> 100,100,50,50,0.78,100,50,> 100,25,MIC [16]: 6.25 µg/mL; MIC [17]: 12.5 µg/mL
"CO/N=C(\C(=O)NC1C(=O)N2C(C(=O)O)=C(SC3CCOCC3)CS[C@H]12)c1csc(N)n1 (stereo partly shown) [Compound No. 7, 7-[(Z)-2-(2-aminothiazol-4-yl)-2-methoxyiminoacetamido]-3-(tetrahydropyran-4-yl)thio-3-cephem-4-carboxylic acid]",0.78,0.78,0.39,0.78,1.56,0.78,0.2,12.5,0.39,0.78,> 100,> 100,50,50,6.25,0.2,50,0.78,100,> 100,MIC [16]: 6.25 µg/mL; MIC [17]: 0.78 µg/mL
Nc1nc(/C(=N/O)C(=O)NC2C(=O)N3C(C(=O)O)=C(SCC4COCO4)CSC23)cs1 (stereo not shown) [Compound No. 35],0.39,0.39,0.39,0.05,1.56,1.56,12.5,12.5,0.2,0.39,> 100,> 100,50,50,12.5,0.2,50,100,> 100,12.5,MIC [16]: 3.13 µg/mL; MIC [17]: 12.5 µg/mL
"CO/N=C(\C(=O)NC1C(=O)N2C(C(=O)O)=C(SCC3COCOC3)CS[C@H]12)c1csc(N)n1 (stereo partly shown) [Compound No. 33, 7-[(Z)-2-(2-aminothiazol-4-yl)-2-methoxyiminoacetamido]-3-(1,3-dioxan-5-yl)methylthio-3-cephem-4-carboxylic acid]",0.78,0.78,0.39,0.1,0.78,0.78,0.2,6.25,0.78,0.78,> 100,> 100,50,50,> 100,0.39,100,6.25,50,> 100,MIC [16]: 3.13 µg/mL; MIC [17]: 0.78 µg/mL
"CO/N=C(\C(=O)NC1C(=O)N2C(C(=O)O)=C(SCC3CCOC3)CS[C@H]12)c1csc(N)n1 (stereo partly shown) [Compound No. 27, 7-[(Z)-2-(2-aminothiazol-4-yl)-2-methoxyiminoacetamido]-3-(tetrahydrofuran-3-yl)methylthio-3-cephem-4-carboxylic acid]",0.78,0.78,0.39,0.2,0.78,0.78,0.2,6.25,0.78,1.56,> 100,> 100,50,50,> 100,0.39,25,6.25,50,100,MIC [16]: 3.13 µg/mL; MIC [17]: 3.13 µg/mL
"Nc1nc(/C(=N/O)C(=O)NC2C(=O)N3C(C(=O)O)=C(SC4CCOC4)CS[C@H]23)cs1 (stereo partly shown) [Compound No. 13, 7-[(Z)-2-(2-aminothiazol-4-yl)-2-hydroxyiminoacetamido]-3-(tetrahydrofuran-3-yl)thio-3-cephem-4-carboxylic acid]",0.39,0.39,0.2,0.39,1.56,6.25,1.56,12.5,0.2,0.2,> 100,> 100,100,50,3.13,0.2,12.5,6.25,> 100,12.5,MIC [16]: 3.13 µg/mL; MIC [17]: 3.13 µg/mL
"Nc1nc(/C(=N/O)C(=O)NC2C(=O)N3C(C(=O)O)=C(SC4COCOC4)CS[C@H]23)cs1 (stereo partly shown) [Compound No. 21, 7 - [(Z) -2-(2-aminothiazol-4-yl) -2-hydroxyiminoacetamido]-3-(1,3-dioxan-5-yl)thio-3-cephem-4-carboxylic acid]",0.2,0.2,0.2,0.2,3.13,0.78,0.78,6.25,0.2,0.2,> 100,> 100,50,25,3.13,0.1,12.5,12.5,> 100,12.5,MIC [16]: 3.13 µg/mL; MIC [17]: 3.13 µg/mL
